Reference: patent US20140315972A1, “RS)-2-(2-oxo-4-phenylpyrrolidin-1-yl)acetamide compound having modulatory activity with a commensurate effect, pharmaceutical substance (variants) and its application, composition (variants) thereof” (priority 2011, published 2014)
Values joined by “and” are separate entries in the source; they are usually repeats but may differ in a detail not shown here. Equal values may be shown once. Read-outs that look alike come from different tables or passages of the source. Marks after values point to notes of the source that are not given here.

Columns and labels:
[1] = Distribution by internal organs after oral administration (GLC); format: in vivo; settings: rats, 100 mg/kg orally; for concentration at 0.25 h / concentration at 0.5 h / concentration at 1 h / concentration at 1.5 h / concentration at 2 h / concentration at 4 h / concentration at 6 h / concentration at 8 h: both sexes, outbred white, rat, po; for concentration at 0.5 h: 0.50 h; for concentration at 1.5 h: 1.50 h
Protocol: The degree of tropism of the compound in various organs by quantitative content varies and is arranged in descending order as follows: liver, kidneys, heart, and brain. Rapid penetration into the brain confirms the good kinetic ability to penetrate through the blood-brain barrier. In 15 minutes, its presence is detected in the brain, heart, liver and kidneys. In the brain, liver and kidneys, the maximum concentration is achieved in an hour, and 6 hours after oral administration the compound is not detectable any more. […] The maximum concentration of Phenotropil in the myocardium is detected later than in the brain, but it is eliminated from the myocardium also two hours later. In the liver, the maximum concentration is found after an hour and then the concentration is gradually decreasing. One hour after administration, the concentration in the kidneys reaches the maximum, with a gradual decrease further on.

rats [2] = assay: Alcohol dependence and abstinence, free choice of water and alcohol; format: in vivo
Source text: The antitoxic, sobering and anticraving, activity, as well as the effect of Phenotropil in abstinence was studied on white outbred male rats (weighing 180-220 g) and male mice (weighing 18-24 g) in chronic alcoholism. […] Alcoholized rats after four months of alcoholism and treatment with Phenotropilom voluntarily give up intake of alcohol (anticraving activity) with free choice of water and alcohol (Table 11).

cortisol = assay: Plasma cortisol level (Tsf-activity) in August and Wistar rats; format: in vivo; settings: for Tsf-activity by cortisol at 3 hours vs control / plasma cortisol at 60 min / Tsf-activity by cortisol at 60 min vs control: i.p. 1.0-750 mg/kg, averaged
rats [3] = assay: Anti-ulcerogenic action under Ds-conditions; format: in vivo; settings: listed as Phenotropil
patients = assay: Acneiform rash, topical solution; format: in vivo, human; settings: for Efficacy expressed in % (acne rush during hormonal alteration): humans, topically 0.1% aqueous solution, baseline control = 100
Protocol: A study of effect of Phenotropil on the scalp and face skin in seborrhea oleosa and on the scalp skin in dry seborrhea, as well in the mixed form, was performed on mixed groups of both sexes (15-37 years). The 0.1% Phenotropil solution was used. In the group with mixed form, additional Phenotropil tablets were administered at a dose of 100 mg per day (in the morning). The baseline examinations were used as control. The prepared samples were rubbed into the scalp once a day 1 or 2 hours before bedtime. In the case of acneiform rash, the skin was wiped in the morning and evening by cotton pads soaked (as usual lotion) by 0.1% aqueous Phenotropil. Washing the hair using shampoo was not recommended. A neutral baby soap “Alice” by OAO Svoboda and the rinse prepared with 25 ml of lemon juice and 100 mg Phenotropil powder per 1000.0 ml water were used. Studies were conducted for 28 calendar days with monitoring examinations every 14 days. In the dry seborrhea group, three patients withdrew from the study after two weeks due to reluctance to undergo further examination; they found it difficult to comply with the regime of the detergents use. The skin state was assessed by a 4-point system, where 0—absent, 1—the effect intensity less than 50.0%, 2—the effect intensity more than 50.0%, 3—the effect intensity more than 80% but less than 100.0% of the cases.

rats [4] = assay: Scopolamine-induced CRPA amnesia, preventive and therapeutic use, adult male rats; format: in vivo
Source text: These findings are of great importance. In clinic, medications have to be prescribed more often already in the midst of disorders.

rats [5] = assay: Forced swimming with freely rotating wheels by Nomura; format: in vivo; settings: rat pups
Protocol: The antidepressant effect of Phenotropil was studied in adult rats (185-218 g) and rat pups of 28-35 days of age (85-110 g). The test drugs were injected intraperitoneally in the first case and intragastrically in the second case 40 min before the tests. The methods of behavioral despair during forced swimming (Porsolt et al., 1978) and forced swimming with freely rotating wheels (Nomura et al., 1982) were used.
In the study of depression by Porsolt, no significant differences between the effective doses were found (Table 10), while according to the method of Nomura this difference is statistically significant. At a dose of 100 mg/kg, the efficacy of Phenotropil as compared to the control, was 59.0%. At a dose of 200 mg/kg it was +30.0% in comparison with the control group (Table 10.1). […] The effect of Phenotropil was investigated by the method of Nomura also in mature outbred rats (185-218 g).

[6] = brain, read-out: Contents of Phenotropil in brain
[7] = heart, read-out: Contents of Phenotropil in heart
[8] = kidney, read-out: Contents of Phenotropil in kidney
[9] = liver, read-out: Contents of Phenotropil in liver
[10] = abstinent rats, 7-month alcoholism, 200 mg/kg, day 3
[11] = abstinent rats, 7-month alcoholism, 200 mg/kg, day 4
[12] = after-effect of 45-day course 100 mg/kg, 1st day
[13] = after-effect of 45-day course 100 mg/kg, 2nd day
[14] = after-effect of 45-day course 100 mg/kg, 3rd day
[15] = rats, 4-month alcoholism, 100 mg/kg, 45th day of administration
[16] = 100.0 mg/kg before training + scopolamine
[17] = 100.0 mg/kg during training and scopolamine

## NC(=O)CN1CC(c2ccccc2)CC1=O (racemic) [Compound 1, (RS)-2-(2-oxo-4-phenylpyrrolidine-1-yl)acetamide]
[1]; [6]
  concentration at 0.25 h: 1600 ± 200 ng/g
  concentration at 0.5 h: 2000 ± 300 ng/g
  concentration at 1 h: 6400 ± 800 ng/g
  concentration at 1.5 h: 4000 ± 600 ng/g
  concentration at 2 h: 1200 ± 300 ng/g
  concentration at 4 h: 400 ± 200 ng/g
[1]; [7]
  concentration at 0.25 h: 3700 ± 600 ng/g
  concentration at 0.5 h: 7900 ± 900 ng/g
  concentration at 1 h: 10100 ± 1000 ng/g
  concentration at 1.5 h: 14300 ± 1300 ng/g
  concentration at 2 h: 12600 ± 1200 ng/g
  concentration at 4 h: 8400 ± 1000 ng/g
  concentration at 6 h: 4400 ± 800 ng/g
[1]; [8]
  concentration at 0.25 h: 33200 ± 3400 ng/g
  concentration at 0.5 h: 37500 ± 4000 ng/g
  concentration at 1 h: 55700 ± 5800 ng/g
  concentration at 1.5 h: 50400 ± 6000 ng/g
  concentration at 2 h: 37200 ± 4100 ng/g
  concentration at 4 h: 28000 ± 3200 ng/g
  concentration at 6 h: 16000 ± 2100 ng/g
  concentration at 8 h: 10100 ± 1300 ng/g
[1]; [9]
  concentration at 0.25 h: 25600 ± 2400 ng/g
  concentration at 0.5 h: 30100 ± 4300 ng/g
  concentration at 1 h: 75800 ± 8200 ng/g
  concentration at 1.5 h: 67700 ± 7100 ng/g
  concentration at 2 h: 59600 ± 5400 ng/g
  concentration at 4 h: 30200 ± 3400 ng/g
  concentration at 6 h: 17700 ± 2100 ng/g
  concentration at 8 h: 11400 ± 1600 ng/g
[1]
  time after which compound is not detectable (brain, liver and kidneys as printed): 6 h
  time of complete elimination from the heart: 8 h
  time of first detection in brain, heart, liver and kidneys: 15 min
  time of maximum concentration in brain, liver and kidneys: in an hour
  time of maximum concentration in the heart: 1 hour 50 minutes
Rats [2]; [10]
  Alcohol consumption: 4.8 ± 0.8 mL/day
  Alcohol consumption vs control: −58.6%
Rats [2]; [11]
  Alcohol consumption: 2.4 ± 0.7 mL/day
  Alcohol consumption vs control: −74.0%
Rats [2]; abstinent rats, 7-month alcoholism, 200 mg/kg, day 14
  Alcohol consumption: 0.0 ** ml/day
Rats [2]; [12]
  Alcohol consumption: 3.3 ± 1.1 mL/day
  Water consumption: 26.7 ± 3.9 mL/day
Rats [2]; [13]
  Alcohol consumption: 0.0 ** ml/day
  Water consumption: 20.2 ± 3.3 mL/day
Rats [2]; [14]
  Alcohol consumption: 0.0 ** ml/day
  Water consumption: 21.2 ± 3.5 mL/day
Rats [2]; [15]
  Alcohol consumption: 10.5 ± 4.2 mL/day
  Water consumption: 24.0 ± 5.9 mL/day
cortisol; August rats
  Tsf-activity by cortisol at 3 hours vs control: +6.8%
  plasma cortisol at 60 min: 45.6 ± 4.1 nmol/L
cortisol; August rats, listed as (RS)-2-(2-oxo-4-phenylpyrrolidin-1-yl)acetamide
  Tsf-activity by cortisol at 60 min vs control: +14.1%
cortisol; August rats, listed as Phenotropil
  Tsf-activity by cortisol at 60 min vs control: +14.1* %
cortisol; August rats, single dose
  modulation factor change compared to the control: −11.5%
cortisol; Wistar rats
  Tsf-activity by cortisol at 3 hours vs control: −7.6%
  plasma cortisol at 60 min: 50.9 ± 4.4 nmol/L
cortisol; Wistar rats, listed as (RS)-2-(2-oxo-4-phenylpyrrolidin-1-yl)acetamide
  Tsf-activity by cortisol at 60 min vs control: +2.0%
cortisol; rats, i.p., range tested 0.5-750.0 mg/kg
  biologically active dose (reliable effect on plasma cortisol), starting from: ≥ 1.0 mg/kg
Rats [3]; 25 mg/kg + 5.0% glucose solution, 25 mg/kg
  ulcer number vs control (100): −45% and −42 * %
Rats [3]; 50 mg/kg + 5.0% glucose solution, 50 mg/kg
  ulcer number vs control (100): −63% and −63 * %
Rats [3]; 100 mg/kg + 5.0% glucose solution, 100 mg/kg
  ulcer number vs control (100): −80% and −80 * %
patients; 0.1% solution, one month
  effect on acne rash: 79-84%
patients; dry skin
  Efficacy expressed in % (acne rush during hormonal alteration): −84 * %
patients; oily skin
  Efficacy expressed in % (acne rush during hormonal alteration): −79 * %
Rats [4]; [16]
  % of animals that did not enter into the dark chamber: 80% *
  LP Pre-training: 17.0 ± 2.9
  LP of the training reproduction: 94.1 ± 8.7
  Number of animals that did not enter into the dark chamber: 16/20
  Time spent in the dark chamber: 49.9 ± 6.9
Rats [4]; [17]
  % of animals that did not enter into the dark chamber: 70% *
  LP Pre-training: 18.4 ± 3.3
  LP of the training reproduction: 91.1 ± 10.1
  Number of animals that did not enter into the dark chamber: 14/20
  Time spent in the dark chamber: 63.4 ± 12.5
Rats [5]; 100 mg/kg
  Number of revolutions: 175.4 ± 22.98
Rats [5]; 200 mg/kg
  Number of revolutions: 143.4 ± 33.14
